Among the data in the METLIN SMRT retention time set (Domingo-Almenara et al. 2019) are RP-LC retention time values, retold here.

Each structure is given as a SMILES string.

A short description of this series: gradient 5% acetonitrile 3 min, to 50% in 2 min, to 85% in 15 min, held 3 min, 100 µL/min. The following applies: column: Zorbax Extend-C18 2.1 x 50 mm; eluents: water / acetonitrile, 0.1% formic acid. In short, it runs like this: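 Mixtures of ~100 pure standards were chromatographed on a Zorbax Extend-C18 column (2.1 × 50 mm, 1.8 μm) at 100 μL/min using water and acetonitrile, each with 0.1% formic acid. Detection used a quadrupole time-of-flight mass spectrometer in positive and negative ionization mode, and data collection spanned 3 months. Retention time was obtained from adduct peaks picked computationally and each checked manually.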
`Cn1cc(C(=O)N2CCC(N(Cc3ccccc3)C3CCOCC3)CC2)cn1` showed an RP-LC retention time of 573 s. Molecule `COc1ccc(NC(=O)c2cc(S(=O)(=O)N3CCCC(C)C3)cn2C)c(OC)c1` (centres undefined) showed an RP-LC retention time of 1010 s. `Cc1nn(CC(=O)N2CCCCCC2)c(=O)c2c(-n3cccc3)n(-c3ccccc3)nc12` displayed an RP-LC retention time of 978 s. Under `CCOc1ccc(NC(=O)Cn2c(=O)n(-c3ccc(F)cc3)c(=O)c3c2cc(C)n3C)cc1` stands 866 s. The molecule `O=C(Cc1ccccc1Cl)Nc1cc(N2CCOCC2)ncn1` yielded an RP-LC retention time of 635 s. On to `Cc1cc(-c2nnc(C3CC3)o2)c(C)n1CC(=O)NCc1ccc(F)c(Cl)c1`, for which the RP-LC retention time is 848 s.

The molecule `CCC(C)Cn1c(CNC(=O)c2ccco2)nc2ccccc21` (centres undefined) yielded an RP-LC retention time of 664 s.

Take `CCN(CCCNC(=O)c1nnc(-c2ccc(S(=O)(=O)N3CCCC3)cc2)o1)Cc1ccccc1`: the RP-LC retention time worked out at 661 s. Turning to `O=C(Nc1cccc(F)c1)C(=O)c1ccc[nH]1`, the RP-LC retention time came out at 846 s. Then `O=C(CN1CCN(Cc2ccc(F)cc2Cl)C1=O)NCCCc1ccccc1`, with 930 s; and `COc1cccc(-c2noc(C3CCCN3C(=O)Nc3cccc(C#N)c3)n2)c1` (centres undefined), with 927 s; and `CCC(C(=O)Nc1ccc(OC)cc1)n1cnc2nc3c(cc2c1=O)CCCC3` (centres undefined), with 770 s. Under `Cc1cccc(-n2ncc3c(NCCCN4CCCC4=O)ncnc32)c1` stands 682 s; under `COc1ccc(OC)c(NC(=O)C2CCN(c3cc(N4CCCCC4)ncn3)CC2)c1`, 709 s; under `COc1ccc(OC)c(Nc2nc(N(C)C)nc3c2cnn3-c2ccccc2)c1`, 1380 s.

As for `COc1cccc2sc(N3CCN(C(=O)C4CCN(S(C)(=O)=O)CC4)CC3)nc12`, the RP-LC retention time amounted to 697 s. Molecule `CN(CCCNC(=O)C1c2ccccc2C(=O)N(C)C1c1cccs1)Cc1ccccc1` (centres undefined) yielded an RP-LC retention time of 645 s. Then `O=C1CC(NC(=O)c2cc(C3CC3)on2)CN1` (centres undefined), with 563 s; and `CCc1cccc(NC(=O)Cn2c(-c3cnccn3)nc(C)c(C)c2=O)c1`, with 809 s; and `Cc1nn(-c2nc(-c3ccccc3)cs2)c(C)c1CC(=O)Nc1cccc(C(F)(F)F)c1`, with 1270 s. Under `CCc1nc(C)c(C)c2nn(Cc3cccc(C#N)c3)c(=O)n12` stands 919 s; under `Cc1nc2c(NC(=O)COc3ccc(F)c(F)c3)cccn2n1`, 818 s. Turning to `CN(C)c1cccc(C(=O)Nc2ccc(CC(=O)NC(C)(C)CO)cc2)c1`, the RP-LC retention time came out at 594 s. Turning to `COc1cc2nc(C(=O)N3CCCCC3)cc(Nc3ccc(C(C)C)cc3)c2cc1OC`, the RP-LC retention time came out at 832 s. Consider `COc1ccc(-c2nnc(N3CCC(C(=O)N4CCN(c5ccccc5)CC4)CC3)o2)cc1`, for which the RP-LC retention time is 859 s. For the molecule `Cn1nc(-c2nc(Cc3ccccc3)no2)c2c1CCN(C(=O)NC1CCCC1)C2`, the RP-LC retention time came out at 867 s. Then `CCn1nnc2cc(-c3noc(CNC(=O)Cc4ccccc4)n3)ccc21`, with 767 s; and `Cc1cccnc1NC(=O)C1CCN(S(=O)(=O)c2cc(C(=O)N3CCCCCC3)cs2)CC1`, with 675 s; and `COc1ccc(-c2coc3cc(OCC(=O)O)ccc3c2=O)cc1OC`, with 703 s. Then `Cc1cccc2nnc(N3CCN(C(=O)c4ccc(F)cc4)CC3)n12`, with 648 s. Then `Cc1ccc(S(=O)(=O)CC(=O)Nc2nc(-c3ccc4c(c3)OCCO4)cs2)cc1`, with 935 s; and `COc1cccc(CN2CCC3(CC2)CN(c2ncccn2)CC3CO)n1` (centres undefined), with 562 s; and `Cc1csc(COc2ccc(C(=O)Nc3ccc4cn[nH]c4c3)cc2)n1`, with 711 s. In turn, `CCc1cc(C2CCCN2C(=O)NCc2cccc(OC)c2)on1` (centres undefined) yielded an RP-LC retention time of 855 s. In turn, `COc1ccc(OC)c(S(=O)(=O)NCC(O)Cc2ccccc2)c1` (centres undefined) had an RP-LC retention time of 736 s. For `O=S(=O)(c1cc(-c2noc(C3CCCC3)n2)cs1)N1CCC2(CC1)OCCO2`, the RP-LC retention time is 1140 s. The molecule `O=C(NCc1ccccc1F)c1ccc2c(c1)ncn2CCN1CCCC1` displayed an RP-LC retention time of 574 s. `Cc1cccc(NC(=O)Cn2ccc3sccc3c2=O)c1` had an RP-LC retention time of 701 s. Under `O=C(NCc1ccccc1)C1CCCN(c2nc3ccsc3c(=O)n2Cc2ccccc2)C1` (centres undefined) stands 902 s; under `Clc1ccc(-c2nc(-c3ccc4nncn4c3)no2)cc1`, 896 s; under `CCNC(=O)N1CCOc2ccc(N(C)C)cc2C1`, 548 s.

The molecule `COc1ccc(-c2oc3c(CC=C(C)C)c(OC4O[C@H](CO)[C@@H](O)[C@H](O)[C@H]4O)cc(O)c3c(=O)c2OC2O[C@@H](C)[C@H](O)[C@@H](O)[C@H]2O)cc1` (some centres undefined) gave an RP-LC retention time of 669 s.

The molecule `O=C(Cc1ccsc1)Nc1ccc2c(c1)CCC(=O)N2` registered an RP-LC retention time of 662 s.

The molecule `CC1=NS(=O)(=O)N(Cc2ccccc2)C=C1C(=O)OCc1noc(-c2ccccc2C)n1` displayed an RP-LC retention time of 1170 s.

`O=C(C1=CN(c2ccc(Cl)cc2)c2cc(F)ccc2S1(=O)=O)N1CCCC1` displayed an RP-LC retention time of 858 s.

`COc1ccc(CNC(=O)N(c2ccccc2)c2ccccc2)c(OC)c1`: the RP-LC retention time turned out to be 925 s.

Molecule `CCOC(=O)c1c(N2C(=O)C3C4C=CC(O4)C3C2=O)sc2c1CCCC2` (centres undefined) displayed an RP-LC retention time of 872 s.

The molecule `CCn1ccc2sc(C)c(C(=O)NCc3ccc(Cl)cc3)c2c1=O` gave an RP-LC retention time of 891 s. Then `Cn1ncc2c(N3CCOCC3)nc(C(=O)NCc3cccs3)nc21`, with 686 s; and `CC1(C)CCC=[N+]1[O-]`, with 487 s.

Turning to `CCCc1noc(-c2ccc3nnc(CC(=O)NC4CCCCC4)n3c2)n1`, the RP-LC retention time was 826 s. `COc1ccc(-n2nc(C(N)=O)c(=O)cc2OC)cc1`: the RP-LC retention time came out at 581 s.

Consider `CCCNC(=O)C1CCN(c2ccc(SCC(=O)Nc3cccc(SC)c3)nn2)CC1`, for which the RP-LC retention time was 677 s. In turn, `CC(C)NC(=O)c1ccc(OCC2CCN(C(=O)c3ccccc3Cl)CC2)cc1` returned an RP-LC retention time of 820 s. `COc1ccc(-c2noc(C3CCN(CC(=O)Nc4ccc5c(c4)OCO5)CC3)n2)cc1` yielded an RP-LC retention time of 703 s. Regarding `CCn1cnc2cc(-c3noc(C(C)NS(=O)(=O)c4ccc(C)cc4)n3)ccc21` (centres undefined), the RP-LC retention time was 683 s. In turn, `COc1ccc(C2C(C(=O)O)CCC(=O)N2c2ccc(OC)cc2)cc1` (centres undefined) gave an RP-LC retention time of 656 s. Under `COc1ccc(OC)c(NC(=O)c2ccc(-n3cnc(NC(=O)C4CC4)c3)cc2)c1` stands 752 s.

With `CCc1ccc(CNC(=O)C2CCN(Cc3cn(CC)c4ccc(Cl)cc34)CC2)cc1`, the RP-LC retention time turned out to be 825 s.
